From patent US11297838B2, “Pesticidal compositions and methods” (CORTEVA AGRISCIENCE LLC, priority 2018, dated 2022) come the findings set out here.

What all share (assay type): in vivo
The test system of data set [1] is Beet Armyworm (Spodoptera exigua, LAPHEG). The data set is described as follows: Insecticidal test for beet armyworm (BAW), 128-well diet tray assay. The following applies: 168 h, 50 μg/cm^2 on artificial diet, second instar larvae, five to seven days, 25° C., read-out: BAW rating, % Control (or Mortality).
For data set [2], the system named is Cabbage Looper (Trichloplusia ni, TRIPNI). Description: Insecticidal test for cabbage looper (CL), 128-well diet tray assay. To be noted: Trichoplusia ni, 168 h; 50 μg/cm^2 on artificial diet, second instar larvae, five to seven days, 25° C.; read-out: CL rating, % Control (or Mortality).
In data set [3] the test system is Yellow Fever Mosquito (Aedes aegypti, AEDSAE). To be noted: about 1 day-old larvae, 4000 ppm master solution diluted, 3 days, room temperature. How it is done: Insecticidal Test for Yellow Fever Mosquito (Aedes aegypti, AEDSAE) (“YFM”)
Master plates containing 400 μg of a molecule dissolved in 100 μL of dimethyl sulfoxide (DMSO) (equivalent to a 4000 ppm solution) are used. A master plate of assembled molecules contains 15 μL per well. To this plate, 135 μL of a 90:10 water/acetone mixture is added to each well. A robot (Biomek® NXP Laboratory Automation Workstation) is programmed to dispense 15 μL aspirations from the master plate into an empty 96-well shallow plate (“daughter” plate). There are 6 reps (“daughter” plates) created per master. The created “daughter” plates are then immediately infested with YFM larvae.
The day before plates are to be treated, mosquito eggs are placed in Millipore water containing liver powder to begin hatching (4 g. into 400 mL). After the “daughter” plates are created using the robot, they are infested with 220 μL of the liver powder/larval mosquito mixture (about 1 day-old larvae). After plates are infested with mosquito larvae, a non-evaporative lid is used to cover the plate to reduce drying. Plates are held at room temperature for 3 days prior to grading. After 3 days, each well is observed and scored based on mortality. In the reporting of the results, the “YFM Rating Table” was used.

The test system of data set [4] is Beet Armyworm (Spodoptera exigua, LAPHEG). Description: Insecticidal test for beet armyworm (BAW), 128-well diet tray assay. To be noted: 168 h, tested at 5 μg/cm^2, second instar larvae, five to seven days, read-out: BAW rating, % Control (or Mortality).
In data set [5] the test system is Cabbage Looper (Trichloplusia ni, TRIPNI). The data set is described as follows: Insecticidal test for cabbage looper (CL), 128-well diet tray assay. To be noted: Trichoplusia ni, 168 h; tested at 5 μg/cm^2, second instar larvae, five to seven days; read-out: CL rating, % Control (or Mortality).

With `CC(C)c1ccccc1N1C(=O)CS/C1=N\C(=O)OCCc1ccc(-c2ncn(-c3ccc(OC(F)(F)F)cc3)n2)cc1` [A2, 4-(1-(4-(Trifluoromethoxy)phenyl)-1H-1,2,4-triazol-3-yl)phenethyl (Z)-(3-(2-isopropylphenyl)-4-oxothiazolidin-2-ylidene)carbamate], the mortality at 50 µg/cm2 in data set [1] and in data set [2] was 50 to 100% in each case. The “YFM rating, % Control (or Mortality)” value in data set [3] was “A (80-100)”.

On to `Cc1ccc(C(F)(F)F)c(N2C(=O)CS/C2=N\C(=O)OCCc2ccc(-c3ncn(-c4ccc(OC(F)(F)F)cc4)n3)cc2)c1` [A14, 4-(1-(4-(Trifluoromethoxy)phenyl)-1H-1,2,4-triazol-3-yl)phenethyl (Z)-(3-(5-methyl-2-(trifluoromethyl)phenyl)-4-oxothiazolidin-2-ylidene)carbamate], for which the mortality at 50 µg/cm2 in data set [1] and in data set [2] was 50 to 100% throughout. Also, the “YFM rating, % Control (or Mortality)” value in data set [3] is “A (80-100)”.

For the molecule `Cc1ccc(C(C)C)c(N2C(=O)CS/C2=N\C(=O)OCC(F)c2ccc(-c3ncn(-c4ccc(OC(F)(F)C(F)(F)F)cc4)n3)cc2)c1` (centres unmarked) [A26, 2-Fluoro-2-(4-(1-(4-(perfluoroethoxy)phenyl)-1H-1,2,4-triazol-3-yl)phenyl)ethyl (Z)-(3-(2-isopropyl-5-methylphenyl)-4-oxothiazolidin-2-ylidene)carbamate], the values for the mortality at 5 µg/cm2 in data set [4] and in data set [5] were 50 to 100% and 0 to 50%, respectively.

With `COc1ccc(C)cc1N1C(=O)CS/C1=N\C(=O)OCCc1ccc(-c2ncn(-c3ccc(OC(F)(F)F)cc3)n2)cc1` [A13, 4-(1-(4-(Trifluoromethoxy)phenyl)-1H-1,2,4-triazol-3-yl)phenethyl (Z)-(3-(2-methoxy-5-methylphenyl)-4-oxothiazolidin-2-ylidene)carbamate], the mortality at 50 µg/cm2 in data set [1] and in data set [2] was 50 to 100% throughout. The “YFM rating, % Control (or Mortality)” value in data set [3] was “A (80-100)”.
